Results taken from US8415351B2 (priority 2007, dated 2013).

Legend:
[1] = target: T1, HCV polymerase 1A (Δ21 NS5B, H77) (Hepatitis C virus genotype 1a, UniProt P27958); experiment: biochemical; conditions: IC50 1a
T1 construct: 20 to 50 nM Δ21 NS5B
Procedure, shortened: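 Radiometric assay with Δ21 NS5B (H77): 20 μM CTP, 20 μM ATP, 1 μM ^3H-UTP, 5 nM template RNA, 2–4 h at room temperature. RNA precipitated with spermine, filter-captured and counted. IC50 from non-linear fit of retained cpm vs inhibitor concentration (tight-binding equation).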

[2] = target: T2, HCV polymerase 1B (Δ21 NS5B, BK) (Hepatitis C virus genotype 1b, UniProt P26663); experiment: biochemical
T2 construct: 20 to 50 nM Δ21 NS5B
Procedure, shortened: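 Δ21 NS5B (genotype 1b, BK […]) preincubated 15 min RT with inhibitor, 2 mM MnCl2, pH 7.4, 60–125 μM GTP; started with 20 μM CTP/ATP, 1 μM 3H-UTP, 5 nM template RNA, run 2–4 h RT. Spermine-precipitated RNA filter-captured, scintillation counted; IC50 from tight-binding (Morrison) fit.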

[3] = system: genotype 1a-H77 subgenomic replicon cell line; experiment: microbe, parasite or virus in culture; assay type: cell-based, HCV; conditions: Hepatitis C virus, read-out: EC50 1a
[4] = system: genotype 1b-Con1 subgenomic replicon cell line; experiment: microbe, parasite or virus in culture; assay type: cell-based, HCV; conditions: Hepatitis C virus, read-out: EC50 1b

T1 sequence (P27958 2421-2990, stated change not applied): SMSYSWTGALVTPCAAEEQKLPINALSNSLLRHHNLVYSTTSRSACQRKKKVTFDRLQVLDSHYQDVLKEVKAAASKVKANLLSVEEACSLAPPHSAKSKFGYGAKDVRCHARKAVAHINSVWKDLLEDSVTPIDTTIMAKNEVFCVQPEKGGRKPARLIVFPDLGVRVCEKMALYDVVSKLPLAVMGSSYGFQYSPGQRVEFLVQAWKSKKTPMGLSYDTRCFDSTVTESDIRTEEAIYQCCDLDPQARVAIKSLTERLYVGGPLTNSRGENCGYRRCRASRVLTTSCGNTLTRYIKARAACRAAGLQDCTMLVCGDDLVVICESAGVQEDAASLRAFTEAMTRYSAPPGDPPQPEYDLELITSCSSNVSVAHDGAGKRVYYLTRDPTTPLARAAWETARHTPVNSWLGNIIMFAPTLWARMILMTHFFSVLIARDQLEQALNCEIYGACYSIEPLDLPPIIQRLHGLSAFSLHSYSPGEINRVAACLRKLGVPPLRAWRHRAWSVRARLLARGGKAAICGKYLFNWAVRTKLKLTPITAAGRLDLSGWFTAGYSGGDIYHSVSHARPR
T2 sequence (P26663 2420-2989, stated change not applied): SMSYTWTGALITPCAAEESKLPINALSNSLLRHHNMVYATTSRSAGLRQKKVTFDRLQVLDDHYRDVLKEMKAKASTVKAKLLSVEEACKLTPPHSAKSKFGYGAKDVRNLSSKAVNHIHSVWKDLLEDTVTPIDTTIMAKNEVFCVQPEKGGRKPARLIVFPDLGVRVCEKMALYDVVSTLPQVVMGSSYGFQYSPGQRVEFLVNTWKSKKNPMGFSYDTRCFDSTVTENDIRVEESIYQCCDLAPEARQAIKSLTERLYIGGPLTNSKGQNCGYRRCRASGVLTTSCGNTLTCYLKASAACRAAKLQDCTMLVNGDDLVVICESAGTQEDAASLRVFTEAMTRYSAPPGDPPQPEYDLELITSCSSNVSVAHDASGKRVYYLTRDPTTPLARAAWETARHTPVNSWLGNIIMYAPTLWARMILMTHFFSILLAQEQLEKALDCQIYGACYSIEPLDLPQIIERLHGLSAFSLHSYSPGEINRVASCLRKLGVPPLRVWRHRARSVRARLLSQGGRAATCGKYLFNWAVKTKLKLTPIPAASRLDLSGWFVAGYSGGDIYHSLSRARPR

`COc1c(C(=O)Nc2ccc(O)cc2)cc(N2CCC(=O)NC2=O)cc1C(C)(C)C` [IA-L3-1.33, 3-tert-butyl-5-(2,4-dioxotetrahydropyrimidin-1(2H)-yl)-N-(4-hydroxyphenyl)-2-methoxybenzamide] was tested, and the IC50 [1] was > 1000 nM, the IC50 [2] was 100 to 1000 nM and the EC50 [3] was > 1000 nM. For the same compound, the EC50 [4] was > 1000 nM.
For `COc1cc(NS(C)(=O)=O)ccc1C#Cc1cc(N2CCC(=O)NC2=O)cc(C(C)(C)C)c1OC` [IA-L2-1.16, N-(4-((3-tert-butyl-5-(2,4-dioxotetrahydropyrimidin-1(2H)-yl)-2-methoxyphenyl)ethynyl)-3-methoxyphenyl)methanesulfonamide], the IC50 [1] was < 10 nM, the IC50 [2] was 10 to 100 nM and the EC50 [3] was 10 to 100 nM. For the same compound, the EC50 [4] was < 10 nM.
For `CC(C)(C)c1cc(N2CCC(=O)NC2=O)cc(C(=O)Nc2ccc3ncccc3c2)c1O` [IA-L3-2.1, 3-tert-butyl-5-(2,4-dioxotetrahydropyrimidin-1(2H)-yl)-2-hydroxy-N-(quinolin-6-yl)benzamide], the IC50 [1] was > 1000 nM, the IC50 [2] was 100 to 1000 nM and the EC50 [3] was > 1000 nM. The EC50 [4] was > 1000 nM.
`COc1c(NC(=O)c2ccccc2)cc(N2CCC(=O)NC2=O)cc1C(C)(C)C` [IA-L4-1.8, N-(3-tert-butyl-5-(2,4-dioxotetrahydropyrimidin-1(2H)-yl)-2-methoxyphenyl)benzamide] was tested, and the IC50 [1] was > 1000 nM, the IC50 [2] was 100 to 1000 nM and the EC50 [3] was > 1000 nM. For the same compound, the EC50 [4] was 100 to 1000 nM.
Work on `COc1c(C#Cc2ccc(NS(C)(=O)=O)c(OC(F)(F)F)c2)cc(N2CCC(=O)NC2=O)cc1C(C)(C)C` [IA-L2-1.17, N-(4-((3-tert-butyl-5-(2,4-dioxotetrahydropyrimidin-1(2H)-yl)-2-methoxyphenyl)ethynyl)-2-(trifluoromethoxy)phenyl)methanesulfonamide] yielded an IC50 [1] of 10 to 100 nM, an IC50 [2] of 10 to 100 nM and an EC50 [3] of 100 to 1000 nM. It also gave an EC50 [4] of 10 to 100 nM.
`COc1c(C#Cc2cc(F)c(NS(C)(=O)=O)cc2C)cc(-n2ccc(=O)[nH]c2=O)cc1C(C)(C)C` [IB-L2-1.3, N-(4-((3-tert-butyl-5-(2,4-dioxo-3,4-dihydropyrimidin-1(2H)-yl)-2-methoxyphenyl)ethynyl)-2-fluoro-5-methylphenyl)methanesulfonamide] was tested, and the IC50 [1] was < 10 nM, the IC50 [2] was 10 to 100 nM and the EC50 [3] was 10 to 100 nM. For the same compound, the EC50 [4] was < 10 nM.
With `COc1cc(NS(C)(=O)=O)ccc1C(=O)Nc1cc(N2CCC(=O)NC2=O)cc(C(C)(C)C)c1OC` [IA-L4-1.11, N-(3-tert-butyl-5-(2,4-dioxotetrahydropyrimidin-1(2H)-yl)-2-methoxyphenyl)-2-methoxy-4-(methylsulfonamido)benzamide] the IC50 [1] was < 10 nM, the IC50 [2] was 10 to 100 nM and the EC50 [3] was 100 to 1000 nM. The EC50 [4] was 10 to 100 nM.
With `COc1c(C#Cc2ccc(NS(C)(=O)=O)cc2Cl)cc(N2CCC(=O)NC2=O)cc1C(C)(C)C` [IA-L2-1.14, N-(4-((3-tert-butyl-5-(2,4-dioxotetrahydropyrimidin-1(2H)-yl)-2-methoxyphenyl)ethynyl)-3-chlorophenyl)methanesulfonamide] the IC50 [1] was < 10 nM, the IC50 [2] was < 10 nM and the EC50 [3] was < 10 nM. The EC50 [4] was < 10 nM.
Compound `COc1c(C#Cc2cc(F)c(NS(C)(=O)=O)cc2C(F)(F)F)cc(-n2ccc(=O)[nH]c2=O)cc1C(C)(C)C` [IB-L2-1.5, N-(4-((3-tert-butyl-5-(2,4-dioxo-3,4-dihydropyrimidin-1(2H)-yl)-2-methoxyphenyl)ethynyl)-2-fluoro-5-(trifluoromethyl)phenyl)methanesulfonamide] has an IC50 [1] of 10 to 100 nM, an IC50 [2] of 10 to 100 nM and an EC50 [3] of 100 to 1000 nM. For the same compound, the EC50 [4] was 10 to 100 nM.
In the case of `COc1c(-c2ccc(NC(=O)NS(C)(=O)=O)cc2)cc(-n2ccc(=O)[nH]c2=O)cc1C(C)(C)C` [IB-L0-1.7, N-(3′-tert-butyl-5′-(2,4-dioxo-3,4-dihydropyrimidin-1(2H)-yl)-2′-methoxybiphenyl-4-ylcarbamoyl)methanesulfonamide], the IC50 [1] is reported as 10 to 100 nM, the IC50 [2] is reported as 10 to 100 nM and the EC50 [3] is reported as > 1000 nM. It also gave an EC50 [4] of 100 to 1000 nM.
With `COc1c(-c2cccc(/C(C)=N\NS(C)(=O)=O)c2)cc(N2CCC(=O)NC2=O)cc1C(C)(C)C` [IA-L0-1.8, (Z)—N′-(1-(3′-tert-butyl-5′-(2,4-dioxotetrahydropyrimidin-1(2H)-yl)-2′-methoxybiphenyl-3-yl)ethylidene)methanesulfonohydrazide] the IC50 [1] was 100 to 1000 nM, the IC50 [2] was 100 to 1000 nM and the EC50 [3] was > 1000 nM. For the same compound, the EC50 [4] was > 1000 nM.
With `COc1c(C(=O)Nc2scc(CNS(C)(=O)=O)c2S(N)(=O)=O)cc(N2CCC(=O)NC2=O)cc1C(C)(C)C` [IA-L3-1.90, 3-tert-butyl-5-(2,4-dioxotetrahydropyrimidin-1(2H)-yl)-2-methoxy-N-(4-(methylsulfonamidemethyl)-3-sulfamoylthiophen-2-yl)benzamide] the IC50 [1] was 10 to 100 nM, the IC50 [2] was 10 to 100 nM and the EC50 [3] was > 1000 nM. It also gave an EC50 [4] of 100 to 1000 nM.
For `CC(C)(C)c1cc(N2CCC(=O)NC2=O)cc(C(=O)Nc2ccc(NS(C)(=O)=O)cc2)c1O` [IA-L3-1.6, 3-tert-butyl-5-(2,4-dioxotetrahydropyrimidin-1(2H)-yl)-2-hydroxy-N-(4-(methylsulfonamido)phenyl)benzamide], the IC50 [1] was 10 to 100 nM, the IC50 [2] was < 10 nM and the EC50 [3] was 100 to 1000 nM. It also gave an EC50 [4] of 10 to 100 nM.
In the case of `COc1c(N(C)C(=O)c2ccc(NS(C)(=O)=O)cc2)cc(N2CCC(=O)NC2=O)cc1C(C)(C)C` [IA-L4-1.7, N-(3-tert-butyl-5-(2,4-dioxotetrahydropyrimidin-1(2H)-yl)-2-methoxyphenyl)-N-methyl-4-(methylsulfonamido)benzamide], the IC50 [1] is reported as 100 to 1000 nM, the IC50 [2] is reported as > 1000 nM and the EC50 [3] is reported as > 1000 nM. The EC50 [4] was > 1000 nM.
In the case of `COc1c(-c2ccc3c(c2)CCC3C(C)(C)NS(C)(=O)=O)cc(-n2ccc(=O)[nH]c2=O)cc1C(C)(C)C` (stereo not drawn) [IB-L0-2.29, N-(2-(5-(3-tert-butyl-5-(2,4-dioxo-3,4-dihydropyrimidin-1(2H)-yl)-2-methoxyphenyl)-2,3-dihydro-1H-inden-1-yl)propan-2-yl)methanesulfonamide], the IC50 [1] is reported as 10 to 100 nM, the IC50 [2] is reported as 10 to 100 nM and the EC50 [3] is reported as 100 to 1000 nM. It also gave an EC50 [4] of 10 to 100 nM.
`COc1c(C#Cc2ccc(NS(C)(=O)=O)cc2NC(C)=O)cc(-n2ccc(=O)[nH]c2=O)cc1C(C)(C)C` [IB-L2-1.12, N-(2-((3-tert-butyl-5-(2,4-dioxo-3,4-dihydropyrimidin-1(2H)-yl)-2-methoxyphenyl)ethynyl)-5-(methylsulfonamido)phenyl)acetamide] was tested, and the IC50 [1] was 10 to 100 nM, the IC50 [2] was 10 to 100 nM and the EC50 [3] was 100 to 1000 nM. It also gave an EC50 [4] of 10 to 100 nM.
With `CC(C)(C)c1cc(N2CCC(=O)NC2=O)cc(NC(=O)c2ccc(NS(C)(=O)=O)cc2)c1O` [IA-L4-1.3, N-(3-tert-butyl-5-(2,4-dioxotetrahydropyrimidin-1(2H)-yl)-2-hydroxyphenyl)-4-(methylsulfon amido)benzamide] the IC50 [1] was 100 to 1000 nM, the IC50 [2] was 100 to 1000 nM and the EC50 [3] was > 1000 nM. The EC50 [4] was > 1000 nM.
With `COc1c(C#Cc2ccc(NS(C)(=O)=O)c(C(F)(F)F)c2)cc(N2CCC(=O)NC2=O)cc1C(C)(C)C` [IA-L2-1.19, N-(4-((3-tert-butyl-5-(2,4-dioxotetrahydropyrimidin-1(2H)-yl)-2-methoxyphenyl)ethynyl)-2-(trifluoromethyl)phenyl)methanesulfonamide] the IC50 [1] was 100 to 1000 nM, the IC50 [2] was 10 to 100 nM and the EC50 [3] was > 1000 nM. For the same compound, the EC50 [4] was > 1000 nM.
In the case of `CC(C)(C)c1cc(N2CCC(=O)NC2=O)cc(C(=O)Nc2scc(CNS(C)(=O)=O)c2S(N)(=O)=O)c1O` [IA-L3-1.89, 3-tert-butyl-5-(2,4-dioxotetrahydropyrimidin-1(2H)-yl)-2-hydroxy-N-(4-(methylsulfonamidomethyl)-3-sulfamoylthiophen-2-yl)benzamide], the IC50 [1] is reported as 10 to 100 nM, the IC50 [2] is reported as 10 to 100 nM and the EC50 [3] is reported as 100 to 1000 nM. For the same compound, the EC50 [4] was 10 to 100 nM.
With `CC(C)(C)c1cc(N2CCC(=O)NC2=O)cc(C(=O)Nc2cccc(CNS(C)(=O)=O)c2)c1O` [IA-L3-1.11, 3-tert-butyl-5-(2,4-dioxotetrahydropyrimidin-1(2H)-yl)-2-hydroxy-N-(3-(methylsulfon-amidomethyl)phenyl)benzamide] the IC50 [1] was > 1000 nM, the IC50 [2] was 100 to 1000 nM and the EC50 [3] was > 1000 nM. For the same compound, the EC50 [4] was > 1000 nM.
`CCc1cc(NS(C)(=O)=O)ccc1C#Cc1cc(N2CCC(=O)NC2=O)cc(C(C)(C)C)c1OC` [IA-L2-1.11, N-(4-((3-tert-butyl-5-(2,4-dioxotetrahydropyrimidin-1(2H)-yl)-2-methoxyphenyl)ethynyl)-3-ethylphenyl)methanesulfonamide] was tested, and the IC50 [1] was < 10 nM, the IC50 [2] was 10 to 100 nM and the EC50 [3] was < 10 nM. For the same compound, the EC50 [4] was < 10 nM.
`COc1c(C(=O)Nc2ccc(NS(C)(=O)=O)cc2)cc(N2CCC(=O)NC2=O)cc1C(C)(C)C` [IA-L3-1.51] showed an IC50 [1] of 10 to 100 nM, an IC50 [2] of 10 to 100 nM and an EC50 [3] of 100 to 1000 nM. It also gave an EC50 [4] of 10 to 100 nM.
With `COc1c(C#Cc2cc(F)c(NS(C)(=O)=O)cc2C)cc(N2CCC(=O)NC2=O)cc1C(C)(C)C` [IA-L2-1.20, N-(4-((3-tert-butyl-5-(2,4-dioxotetrahydropyrimidin-1(2H)-yl)-2-methoxyphenyl)ethynyl)-2-fluoro-5-methylphenyl)methanesulfonamide] the IC50 [1] was < 10 nM, the IC50 [2] was 10 to 100 nM and the EC50 [3] was 10 to 100 nM. For the same compound, the EC50 [4] was < 10 nM.
In the case of `COc1c(C#Cc2ccc(NS(C)(=O)=O)c3ccccc23)cc(-n2ccc(=O)[nH]c2=O)cc1C(C)(C)C` [IB-L2-2.1, N-(4-((3-tert-butyl-5-(2,4-dioxo-3,4-dihydropyrimidin-1(2H)-yl)-2-methoxyphenyl)ethynyl)-naphthalen-1-yl)methanesulfonamide], the IC50 [1] is reported as 10 to 100 nM, the IC50 [2] is reported as 10 to 100 nM and the EC50 [3] is reported as 100 to 1000 nM. It also gave an EC50 [4] of 100 to 1000 nM.
